From US10328092B2, “Methods and compositions for treatment of drug addiction” (The Royal Institution for the Advancement of Learning / …, priority 2015, dated 2019) come the findings set out here.

Data set [1] concerns microglia in the nucleus accumbens. The data set is described as follows: Microglia activation in nucleus accumbens (Iba1 immunostaining, morphology). In kind it is in vivo, mouse. The protocol: Resting microglia have a ramified morphology but continuously survey the healthy brain and respond to a variety of activation signals by undergoing progressive morphological and functional changes (Kettenmann et al., 2011). Cocaine administration could activate microglia in the NAc, which could lead to the observed elevation of TNFα. Using the microglia marker Iba1, microglia was labeled in adult mice, 24 hours after a single cocaine injection, 24 hrs after 5 days of daily cocaine injections, or after 10 days of drug abstinence. Although no change was identified in the number of microglia in the NAc at any time point (FIG. 10E), Iba1 intensity was increased in microglia by 5 days of cocaine, and after a period of abstinence (FIG. 6C-D), indicating activation. […] In contrast to the change in microglia, no activation of astrocytes was observed, as judged by GFAP expression. […] This is consistent with the observation that TNFα is derived from microglia and not astrocytes during sensitization.
Mice (8-10 weeks) were perfused and their brains submerged overnight in 4% PFA, cryoprotected with 30% sucrose, and cut in 30 μm thick coronal slices using a cryostat. […] Images of the ventral striatum (nucleus accumbens core and shell) were acquired with a 40× or 60× objective and stacks of 25-30 optical sections (1 μm per section) of depth were Z-projected into a single window and analysed using ImageJ software (NIH).
The number of Iba1+ microglia were manually counted from 212×212 μm (60× objectives) or 317×317 μm (40× objectives) images. TNFα intensity was measured using the mean grey value of the entire image while Iba1 intensity measurements were obtained using a thresholded area to highlight only the microglia. Cell body area (μm^2) was measured based on Iba1 staining and using the freehand selection tool. […] The following parameters were analyzed for 40 microglia per group: total process length (sum of length of all processes), total process volume, process diameter and number of branch points and terminals. […]

A further data set concerns adult microglial cells. The data set is described as follows: TNFα mRNA in cultured adult mouse microglia. In kind it is cell-based. The following applies: cocaine 1 μm, 3 hours. The protocol:
(SEQ ID NO: 1) [200 nM]; mouse TNFα reverse, […] (SEQ ID NO: 2) [200 nM]; mouse GAPDH forward, […] (SEQ ID NO: 3) [300 nM]; mouse GAPDH reverse, […] (SEQ ID NO: 4) [300 nM]; rat TNFα forward, […] (SEQ ID NO: 1) [600 nM]; rat TNFα reverse, […] (SEQ ID NO: 5) [600 nM]; rat cyclophilin forward, […] (SEQ ID NO: 6) [500 nM]; rat cyclophilin reverse, […] (SEQ ID NO: 7) [500 nM]. After 40 cycles, the Ct values were determined.
Adult male C57BL/6 mice (8-12 weeks) underwent cardiac perfusion with Hank's Balanced Salt Solution (HBSS) and whole brains were removed. Cortices and striata were dissected, cut in to small pieces and subjected to enzymatic digestion with the Neural Tissue Dissociation Kit (P) (Miltenyi Biotech, US cat no. 130-092-628), as per manufactures instructions. Tissue was homogenised and resuspended in 35% isotonic Percoll, overlayed with HBSS and spun at 400 g for 45 mins for the removal of myelin. Pure populations of microglial cells were obtained through magnetic bead cell sorting using CD11b microbeads (Miltenyi, cat no. 130-093-634). Aliquots from positive and negative bead selected fractions were removed for cell staining to assess cell purity. […] Cells were acquired using a BD FACS Canto II and analyzed using BD FACSDiva software. […]

The subject of a further data set is mice. In words: Stereotypic responses to cocaine (pausing, turning, velocity). In kind it is in vivo, mouse. As to conditions: MPLA 10 μg or 50 μg, response to cocaine. The protocol: Locomotion was monitored in 30×30 cm plexiglass boxes by the EthoVision video-tracking system (Noldus) and performed near the end of the light phase of the light-dark cycle under dim red light. After habituating animals to handling, mice received IP injections of saline or cocaine and their activity was recorded for 15 min. Mice were tested during habituation to injection and the activity boxes (saline; days 1-2) and 5 repeated cocaine injections (15 mg/kg; days 3-7). Following 10 days without injections (withdrawal), mice receive a challenge dose of cocaine (15 mg/kg) and locomotor activity again assessed (day 17). Total distance traveled and stereotypy were evaluated from video by EthoVision. For stereotypy, the frequency of which the mouse stops moving (#pauses/min) was measured using a threshold start velocity of 2.00/second and a threshold stop velocity of 0 cm/s. The number of turns per minute (# turns/min) was measured by calculating the frequency for which the path of the mouse turns over a minimum distance of 3.00 cm. Velocity was assessed as the mean distance traveled (cm) over time (s).

In the case of `COC(=O)[C@H]1[C@@H](OC(=O)c2ccccc2)C[C@@H]2CC[C@H]1N2C` [cocaine], the “microglia cell body area” value in data set [1] (5 d cocaine) was found to be 37.2±0.9 μm^2. In addition, the “decrease of total length of microglia processes” value in data set [1] (after 5 days cocaine) came to 20%. Moreover, the “TNFα mRNA, cultured adult microglia” value with adult microglial cells was 95 % of control.
Take monophosphoryl lipid A [MPLA]: in the data set with mice, the mean velocity entry was “significant decreases”, the pausing entry was “slight increase” and the turning behaviour result is “significant decreases”. Moreover, the “Iba1 intensity in nucleus accumbens” value in data set [1] (24 hours after a single MPLA injection 10 μg, after 10 day withdrawal from cocaine) is on record as “significantly increased”.
